# Reference: publication PMC4631180 (British Journal of Clinical Pharmacology, 2015)
# Entries after “also recorded” stand apart in the source; their conditions may differ. Counter-ions that a name gives are not always drawn. Like-named read-outs stand apart in the source and are kept apart here. Marks after values point to notes of the source that are not given here.
# How the values were obtained:
# [1] = assay type: in vivo, human; conditions: for Truncated AUC: 0–12 h; for Total AUC: extrapolated to infinity; for Cmax ratio (Day2) / (Day1), arithmetic mean / Cmax ratio (Day2) / (Day1), geometric mean / Cmax ratio (Day6) / (Day1), arithmetic mean / Cmax ratio (Day6) / (Day1), geometric mean / Total AUC ratio (Day2) / (Day1), arithmetic mean / Total AUC ratio (Day2) / (Day1), geometric mean / Total AUC ratio (Day6) / (Day1), arithmetic mean / Total AUC ratio (Day6) / (Day1), geometric mean / Truncated AUC ratio (Day2) / (Day1), arithmetic mean / Truncated AUC ratio (Day2) / (Day1), geometric mean / Truncated AUC ratio (Day6) / (Day1), arithmetic mean / Truncated AUC ratio (Day6) / (Day1), geometric mean: favipiravir co-administration vs control; for half-life: both, human, plasma, oral, t½
# [2] = assay type: in vivo, human
# [3] = system: acetaminophen sulfate formation (sulfation); experiment: Inhibition of acetaminophen sulfate formation in pooled human hepatic S9; assay type: in vitro ADME; conditions: both, pooled human hepatic S9, probe acetaminophen (2 mM)
# [4] = system: acetaminophen glucuronide formation (pooled human hepatic S9); experiment: Inhibition of acetaminophen glucuronide formation in pooled human hepatic S9; assay type: in vitro ADME; conditions: pooled human hepatic S9, acetaminophen 2 mM; favipiravir up to 3000 µM, T-705M1 3–300 µM
# [5] = Day 1, acetaminophen alone (control), mean (± SE), n = 28
# [6] = Day 2, + acute favipiravir, mean (± SE), n = 28
# [7] = Day 6, + extended favipiravir, mean (± SE), n = 28
# [8] = 650 mg, Day 1, acetaminophen alone (control), mean (± SE), n = 28
structure (smiles),measurement,setting,value
CC(=O)Nc1ccc(OS(=O)(=O)O)cc1 [Acetaminophen sulfate],Cmax,"[1]; Day 1, acetaminophen 650 mg oral alone (control), mean (± SE), n = 28",4.8 (± 0.4) µg ml^–1
same,tmax,"[1]; Day 1, acetaminophen 650 mg oral alone (control), n = 28",1.00 (± 0.33) h
same,Truncated AUC,[1]; [5],22.4 (± 1.7) µg ml^–1 h
same,t½,[1]; [5],3.4 (± 0.1) h
same,Truncated AUC,[1]; [6],16.0 (± 1.3) µg ml^–1 h
same,Total AUC,[1]; [6],21.2 (± 2.1) µg ml^–1 h
same,t½,[1]; [6],5.5 (± 0.6) h
same,tmax,"[1]; Day 2, acetaminophen 650 mg oral + acute favipiravir, n = 28",1.51 (± 0.1) h
same,Truncated AUC,[1]; [7],14.6 (± 1.6) µg ml^–1 h
same,Total AUC,[1]; [7],20.1 (± 2.3) µg ml^–1 h
same,t½,[1]; [7],5.3 (± 0.4) h
same,tmax,"[1]; Day 6, acetaminophen 650 mg oral + extended favipiravir, n = 28",1.27 (± 0.09) h
same,"Cmax ratio (Day2) / (Day1), arithmetic mean",[1],0.52*
same,"Cmax ratio (Day2) / (Day1), geometric mean",[1],0.51
same,"Cmax ratio (Day6) / (Day1), arithmetic mean",[1],0.52*
same,"Cmax ratio (Day6) / (Day1), geometric mean",[1],0.47
same,"Total AUC ratio (Day2) / (Day1), arithmetic mean",[1],0.84*
same,"Total AUC ratio (Day2) / (Day1), geometric mean",[1],0.8
same,"Total AUC ratio (Day6) / (Day1), arithmetic mean",[1],0.81
same,"Total AUC ratio (Day6) / (Day1), geometric mean",[1],0.72
same,"Truncated AUC ratio (Day2) / (Day1), arithmetic mean",[1],0.71*
same,"Truncated AUC ratio (Day2) / (Day1), geometric mean",[1],0.7
same,"Truncated AUC ratio (Day6) / (Day1), arithmetic mean",[1],0.65*
same,"Truncated AUC ratio (Day6) / (Day1), geometric mean",[1],0.6
same,Projected total urinary excretion,"[2]; Day 1, acetaminophen 650 mg alone (control), mean (± SE), n = 28",22 (± 2) % of dose
"NC(=O)c1nc(F)c[nH]c1=O [Favipiravir, reference compound]",IC50 at 15 min,[3],150 µM
same,Inhibition of acetaminophen glucuronide formation,[4],did not inhibit
"CC(=O)Nc1ccc(O)cc1 [Acetaminophen, reference compound]",Total AUC,[1]; [6],39.3 (± 3.1) µg ml^–1 h
same,Total AUC,[1]; [7],37.4 (± 2.5) µg ml^–1 h
same,Effect of favipiravir co-administration on Cmax,[1]; acute (day 2) and extended (day 6) favipiravir vs day 1,not significantly changed; also recorded: no significant effect
same,half-life,[1]; [8],2.8 h
same,half-life,[1]; [6],3 h
same,"Cmax ratio (Day2) / (Day1), arithmetic mean",[1],1.07
same,"Cmax ratio (Day2) / (Day1), geometric mean",[1],1.03
same,"Cmax ratio (Day6) / (Day1), arithmetic mean",[1],1.17
same,"Cmax ratio (Day6) / (Day1), geometric mean",[1],1.08
same,"Total AUC ratio (Day2) / (Day1), arithmetic mean",[1],1.20*
same,"Total AUC ratio (Day2) / (Day1), geometric mean",[1],1.17
same,"Total AUC ratio (Day6) / (Day1), arithmetic mean",[1],1.19*
same,"Total AUC ratio (Day6) / (Day1), geometric mean",[1],1.14
same,"Truncated AUC ratio (Day2) / (Day1), arithmetic mean",[1],1.19*
same,"Truncated AUC ratio (Day2) / (Day1), geometric mean",[1],1.17
same,"Truncated AUC ratio (Day6) / (Day1), arithmetic mean",[1],1.19*
same,"Truncated AUC ratio (Day6) / (Day1), geometric mean",[1],1.14
same,Dose excreted in urine as intact acetaminophen,[2]; on average,less than 10 % of the dose
CC(=O)Nc1ccc(O[C@@H]2O[C@H](C(=O)O)[C@@H](O)[C@H](O)[C@H]2O)cc1 [Acetaminophen glucuronide],Total AUC,[1]; [6],99.3 (± 5.1) µg ml^–1 h
same,Total AUC,[1]; [7],109.0 (± 7.1) µg ml^–1 h
same,half-life,[1]; [8],3.3 h
same,half-life,[1]; [6],3.5 h
same,"Cmax ratio (Day2) / (Day1), arithmetic mean",[1],1.19*
same,"Cmax ratio (Day2) / (Day1), geometric mean",[1],1.18
same,"Cmax ratio (Day6) / (Day1), arithmetic mean",[1],1.26*
same,"Cmax ratio (Day6) / (Day1), geometric mean",[1],1.22
same,"Total AUC ratio (Day2) / (Day1), arithmetic mean",[1],1.23*
same,"Total AUC ratio (Day2) / (Day1), geometric mean",[1],1.22
same,"Total AUC ratio (Day6) / (Day1), arithmetic mean",[1],1.35*
same,"Total AUC ratio (Day6) / (Day1), geometric mean",[1],1.32
same,"Truncated AUC ratio (Day2) / (Day1), arithmetic mean",[1],1.23*
same,"Truncated AUC ratio (Day2) / (Day1), geometric mean",[1],1.21
same,"Truncated AUC ratio (Day6) / (Day1), arithmetic mean",[1],1.34*
same,"Truncated AUC ratio (Day6) / (Day1), geometric mean",[1],1.31
NC(=O)c1nc(F)c(=O)[nH]c1O [T‐705M1],Inhibition of acetaminophen glucuronide formation,[4],did not inhibit; also recorded: no effect
